Where two headings read alike, the source gives them in different places.
Experiments:
α1L adrenoceptor subtype = molecular target: T1, α1L adrenoceptor subtype (Oryctolagus cuniculus, UniProt O02824); experiment: Functional affinity for α1L-adrenoceptors: noradrenaline-induced contractions of rabbit aorta pretreated with chloroethylclonidine; format: biochemical; conditions: rabbit aorta rings pretreated with chloroethylclonidine, NA-induced contractions, Schild plot or apparent Kb
T1 sequence (O02824 1-466): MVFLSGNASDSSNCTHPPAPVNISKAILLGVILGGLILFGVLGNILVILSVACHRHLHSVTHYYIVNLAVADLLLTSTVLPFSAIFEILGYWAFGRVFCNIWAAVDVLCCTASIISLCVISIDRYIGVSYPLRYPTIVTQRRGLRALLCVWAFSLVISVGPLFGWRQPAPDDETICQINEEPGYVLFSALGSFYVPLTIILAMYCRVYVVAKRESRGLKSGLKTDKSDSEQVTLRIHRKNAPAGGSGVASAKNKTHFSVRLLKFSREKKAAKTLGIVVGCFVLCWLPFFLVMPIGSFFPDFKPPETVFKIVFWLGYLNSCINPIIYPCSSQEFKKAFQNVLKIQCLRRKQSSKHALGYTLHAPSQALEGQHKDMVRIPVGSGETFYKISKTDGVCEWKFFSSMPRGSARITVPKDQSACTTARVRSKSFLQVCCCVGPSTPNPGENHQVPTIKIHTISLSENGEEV
Description: Adult male New Zealand rabbits were sacrificed by cervical dislocation. The aorta was removed, placed in Krebs-Henseleit buffer and dissected free of adhering tissue. […] After washout of NA and re-equilibration of the tissue (45 minutes), the drug to be tested was added and, after 30 minutes, a second NA-cumulative-concentration/response curve constructed. Each antagonist concentration was tested using 2-3 aortic rings from different rabbits.

[1] = test system: urethral contractions (UC) induced by noradrenaline (NA); conditions: dogs, i.v.; data from Leonardi et al., J Pharmacol Exp Ther 281, 1272-1283 (1997); cited from earlier work
[2] = test system: diastolic blood pressure (DBP); conditions: dogs, i.v.; data from Leonardi et al., J Pharmacol Exp Ther 281, 1272-1283 (1997); cited from earlier work
[3] = test system: urethral contractions (UC) induced by noradrenaline (NA); experiment: Effects on urethral contractions induced by noradrenaline injection in dogs after i.v. administration; format: in vivo, beagle dogs; conditions: for ED50: Canis lupus familiaris, iv, anaesthetised male beagle dogs, i.v., dose inhibiting by 50% the NA-induced increase in urethral pressure, read-out: UC ID50 NA; for Ratio (DBP/UC): ratio between the active doses DBP ED25 / UC ID50, dogs i.v.
Description: The experiments were performed according to the method of Imagawa et al. (J. Pharmacol. Methods 22, 103-111 (1989)), with substantial modifications, as follows: adult male beagle dogs, weighing 8-10 kg, were anaesthetised with pentobarbital sodium (30 mg/kg i.v. and 2 mg/kg/h i.v.), intubated and spontaneously ventilated with room air. In order to monitor systemic blood pressure (BP), a polyethylene (PE) catheter was introduced into the aortic arch through the left femoral artery. A collateral of the left femoral vein was cannulated for infusion of anaesthetic, and the right femoral vein was cannulated for administration of compounds. For intraarterial (i.a.) injection of noradrenaline (NA), a PE catheter was introduced into the lower portion of the abdominal aorta via the right external iliac artery. Through such procedure, NA was selectively distributed to the lower urinary tract. A paramedian vertical suprapubic incision extending from the base of the pelvis to the mid-abdominal region was made and the bladder and the prostate were exposed. The bladder was manually emptied with a syringe. Prostatic urethral pressure was monitored with a Mikro-tip cathe[…]) introduced into the bladder via the external urethral meatus, and withdrawn until the pressure transducer was positioned in the prostatic region of the urethra. A ligature was secured between the neck of the bladder and urethra to isolate the response of the latter and to avoid any interaction with the bladder. Another ligature was put around the Mikro-tip catheter at the external meatus, to secure the catheter itself. […] In order to compare the effects of the administered compound, dose/response curves (log dose transformation) were constructed by computing, at the peak effect, the percent decrease in diastolic blood pressure and percent inhibition of the increase in urethral pressure induced by NA.

[4] = test system: diastolic blood pressure (DBP); experiment: Effects on blood pressure in dogs after i.v. administration; format: in vivo; conditions: anaesthetised male beagle dogs, dose inducing a 25% decrease in diastolic blood pressure
Description: The experiments were performed according to the method of Imagawa et al. (J. Pharmacol. Methods 22, 103-111 (1989)), with substantial modifications, as follows: adult male beagle dogs, weighing 8-10 kg, were anaesthetised with pentobarbital sodium (30 mg/kg i.v. and 2 mg/kg/h i.v.), intubated and spontaneously ventilated with room air. In order to monitor systemic blood pressure (BP), a polyethylene (PE) catheter was introduced into the aortic arch through the left femoral artery. A collateral of the left femoral vein was cannulated for infusion of anaesthetic, and the right femoral vein was cannulated for administration of compounds. For intraarterial (i.a.) injection of noradrenaline (NA), a PE catheter was introduced into the lower portion of the abdominal aorta via the right external iliac artery. Through such procedure, NA was selectively distributed to the lower urinary tract. A paramedian vertical suprapubic incision extending from the base of the pelvis to the mid-abdominal region was made and the bladder and the prostate were exposed. The bladder was manually emptied with a syringe. Prostatic urethral pressure was monitored with a Mikro-tip catheter (5F) introduced into the bladder via the external urethral meatus, and withdrawn until the pressure transducer was positioned in the prostatic region of the urethra. A ligature was secured between the neck of the bladder and urethra to isolate the response of the latter and to avoid any interaction with the bladder. Another ligature was put around the Mikro-tip catheter at the external meatus, to secure the catheter itself.
After a stabilising period following the surgical procedure (30 minutes), in which arterial and prostatic urethral pressures were continuously monitored as basal values, i.a. administration of NA was made at intervals of 20 minutes.
The doses of NA chosen were such to produce an increase of at least 100% in urethral pressure. The test compounds were administered i.v. in a cumulative manner with intervals of 15-20 minutes between administrations. […]

Row | Compound | pKb (α1L adrenoceptor subtype) | UC ID50 NA [1] [µg/kg] | DBP ED25 [2] [µg/kg] | ED50 [3] [µg/kg] | Ratio (DBP/UC) [3] | DBP ED25 [4] [µg/kg]
1 | COc1ccccc1N1CCN(CCCNC(=O)c2cccc3c(=O)c(C)c(-c4ccccc4)oc23)CC1 [Compound A] | 8.64 | 2.4 | 243 | – | – | –
2 | COc1ccc(Cl)cc1N1CCN(CCCNC(=O)c2csc3c(=O)cc(-c4ccccc4)oc23)CC1 [Example 1, N-{3-[4-(5-Chloro-2-methoxyphenyl)-1-piperazinyl]-propyl}-7-oxo-5-phenyl-7H-thieno[3,2-b]pyran-3-carboxamide] | – | – | – | 5.3 | 52.8 | 280
3 | COc1ccccc1N1CCN(CCCNC(=O)c2csc3c(=O)cc(-c4ccccc4)oc23)CC1 [Example 2, N-{3-[4-(2-Methoxyphenyl)-1-piperazinyl]-propyl}-7-oxo-5-phenyl-7H-thieno[3,2-b]pyran-3-carboxamide] | – | – | – | 1.8 | 19.7 | 35.5
4 | O=C(NCCCN1CCN(c2ccccc2OCC(F)(F)F)CC1)c1csc2c(=O)cc(-c3ccccc3)oc12 [Example 5, 7-Oxo-5-phenyl-N-{3-[4-[2-(2,2,2-trifluoroethoxy)-phenyl]-1-piperazinyl]-propyl}-7H-thieno[3,2-b]pyran-3-carboxamide] | – | – | – | 2.7 | >370 | >1000

— patent publication EP1200445B1, “THIENOPYRANECARBOXAMIDE DERIVATIVES” (RECORDATI INDUSTRIA CHIMICA E FARMACEUTICA S.p.a., priority 1999, dated 2001)
